# Results reported in patent US20140051815A1, “ORGANIC SULFONIC ACID COMPOUND, DOPANT HAVING SAME, AND CONDUCTIVE POLYMER COMPLEX HAVING THE DOPANT” (Ajou University Industry-Academic Cooperation Foundation, priority 2011, published 2014).
# Tests used:
# [1] = Solubility in various solvents; format: physicochemical; parameters: key: +++: dissolved well; ++: almost dissolved, but not completely dissolved and somewhat precipitated; +: opaquely dispersed; −: not dissolved but precipitated
# Procedure: Solubility properties of polyaniline ES in various organic solvents using the dopants of Examples were compared and checked in the same experimental conditions. […] After a basket mixing process, transmittances were measured and an average particle size was measured by using a particle size analyzer, and measurement results are as shown in Table 5.
# [2] = Acidity / pH of doping solution, titration with 0.1 N KOH; format: physicochemical
# From the text: In order to confirm a doping function of the dopants of Examples, pH of a doping solution was checked by using a 0.1 N KOH solution. […] Therefore, a function as a dopant could be confirmed.
Structure (SMILES),Solubility in BuO—EtOH [1],Solubility in CHCl3 [1],Solubility in H2O [1],Solubility in MEK [1],Solubility in MeOH [1],Solubility in NMP [1],Solubility in isopropyl alcohol [1],Solubility in m-cresol [1],Solubility in toluene [1],Titration (Acidity) 0.1N KOH; converted into sulfonic acid [2] [%]
O=S(=O)(O)CCCOc1ccc(O)cc1 [Dopant II],+++,−,+++,+,+++,+++,++,++,−,85
Cc1cccc(OCCCS(=O)(=O)O)c1 [Dopant I],++,−,+++,+,+++,++,+++,++,−,86
Cc1cc(OCCCS(=O)(=O)O)ccc1O [Dopant VI],+++,−,+++,+,+++,+++,+++,++,−,

# Now from value to compound:
Solubility in BuO—EtOH [1],Solubility in CHCl3 [1],Solubility in H2O [1],Solubility in MEK [1],Solubility in MeOH [1],Solubility in NMP [1],Solubility in isopropyl alcohol [1],Solubility in m-cresol [1],Solubility in toluene [1],Titration (Acidity) 0.1N KOH; converted into sulfonic acid [2] [%],Structure (SMILES)
+,−,+++,+,+++,+++,+,+++,−,,O=S(=O)(O)CCCOc1ccc(-c2ccccc2)cc1 [Dopant IV]
+++,−,+++,++,+++,+++,++,++,−,,O=S(=O)(O)CCCOc1ccc(OCc2ccccc2)cc1 [Dopant V]
